From PMC11360180, “Enhancement of Antimicrobial Function by L/D-Lysine Substitution on a Novel Broad-Spectrum Antimicrobial Peptide, Phylloseptin-TO2: A Structure-Related Activity Research Study” (Pharmaceutics, 2024)
Where a SMILES comes first, the peptide text is derived from it. Where no end group is shown, it is not given here. [ ]: non-standard residue; d: D form.

Key:
[1] = system: S. aureus (ATCC 6538) biofilm; format: cell-based, Staphylococcus aureus; conditions: ATCC 6538, 24 h
Method: To test the anti-biofilm ability of PSTO2 and its analogues, three types of microorganisms (S. aureus ATCC® 6538, E. coli ATCC® 8739, and MRSA NCTC® 12493) were chosen. Tryptic soy broth (TSB) and Lysogeny broth (LB) were used to culture microorganisms. The peptide was dissolved in an autoclaved PBS solution and diluted into concentrations ranging from 51,200 µM to 100 µM. One µL of peptide solution of each concentration was added into a 96-well plate with 100 µL bacterium at 5 × 10^5 CFU/mL. The plate was incubated at 37 °C for 24 h, with shaking at 200 rpm. After overnight incubation, the planktonic bacteria were washed up. Then, 100 µL of methanol was used to fix the biofilms onto the bottom, and 100 µL of 0.1% crystal violet solution (Sigma-Aldrich, Gillingham, UK) was added to each well to stain the biofilms. After drying, 160 µL of acetic acid (30% in deionised water, Sigma-Aldrich, UK) was added to each well to dissolve the shaded parts. The absorbance was detected with the Synergy HT plate reader at λ = 595 nm.
For the MBEC assay, 100 µL of the bacterium of 5 × 10^5 CFU/mL was transferred into an empty 96-well plate, and the plate was incubated at 37 °C for 24 h to obtain the biofilms primarily. Then, the peptide solution from 512 µM to 1 µM was transferred into a corresponding well, followed by 24 h incubation at 37 °C, with shaking at 200 rpm. After this, the plate was handled using the identical method to the plate in the MBIC assay, and the absorbance of each well was detected with the Synergy HT plate reader at λ = 595 nm. The minimum concentration at which the peptide can eradicate the existing biofilm was recorded as the MBEC value.

[2] = system: K. pneumonia (ATCC 43816); format: cell-based, Klebsiella pneumonia; conditions: ATCC 43816, 24 h
Source text: (§1) Seven microorganism strains were used to preliminarily evaluate the antimicrobial activity of PSTO2 and its analogues, including Staphylococcus aureus (S. aureus) (ATCC® 6538), methicillin-resistant Staphylococcus aureus (MRSA) (NCTC® 12493), Enterococcus faecalis (E. faecalis) (NCTC® 12697), E. coli (ATCC® 8739), Klebsiella pneumonia (K. pneumonia) (ATCC® 43816), Pseudomonas aeruginosa (P. aeruginosa) (ATCC® CRM 9027), Acinetobacter baumanni (A. baumanni) (BAA® 747), and Candida albicans (C. albicans) (ATCC® 10231). In this study, the strains were cultured in Mueller–Hinton broth (MHB), nutrient broth (NB), and yeast–peptone–dextrose broth (YPD-B) correspondingly at 37 °C, with shaking at 120 rpm. Each peptide was dissolved from 128 μM to 1 μM and mixed with the bacterium at 5 × 10^5 CFU/mL. In this process, bacteria with culture medium were used as the growth control group; PBS was set up as the vehicle control group; sterile culture medium was used as the blank control group; and Norfloxacin at a concentration of 2 mg/mL and amphotericin B at a concentration of 1 mg/mL were set up as the positive control group for bacteria and fungi, respectively.
(§2) After being incubated for 24 h, a Synergy HT plate reader (Bio-Tek, Shoreline, WA, USA) was used to detect the absorbance of each well in the 96-well plate at λ = 550 nm. The concentration at which no visible turbidity could be recorded was the MIC value. Beginning from the MIC value, 10 µL of solution in each clear well was dropped on the sterile agar plates. The plate was checked the next day for colony formation, and the lowest concentration at which no colony growing was recorded as an MBC value.

[3] = system: S. aureus (ATCC 6538); format: cell-based, Staphylococcus aureus; conditions: ATCC 6538, 24 h
Source text: as §1, with “In this process, bacteria with culture medium were used as the growth control group; PBS was set up as the vehicle control group; sterile culture medium was used as the blank control group; and Norfloxacin at a concentration of 2 mg/mL and amphotericin B at a concentration of 1 mg/mL were set up as the positive control group for bacteria and fungi, respectively.” left out
as §2, with “value. […]” for “value. Beginning from the MIC value, 10 µL of solution in each clear well was dropped on the sterile agar plates.”, “value. […]” for “value.”

Compound | MBEC [1] | MBIC [1] | MBC [2] | MIC [2] | MBC [3] | MIC [3]
CC[C@H](C)[C@H](NC(=O)[C@H](C)NC(=O)[C@@H](CCCCN)NC(=O)[C@@H]1CCCN1C(=O)[C@@H](NC(=O)[C@H](CC(C)C)NC(=O)[C@H](CO)NC(=O)[C@H](CC(C)C)NC(=O)[C@@H](N)Cc1ccccc1)[C@@H](C)CC)C(=O)N[C@@H](CCCCN)C(=O)N[C@@H](C)C(=O)N[C@H](C(=O)N[C@@H](CCCCN)C(=O)N[C@@H](C)C(=O)N[C@@H](CC(C)C)C(=O)N[C@@H](C)C(=O)N[C@@H](CCCCN)C(=O)N[C@H](CCCCN)C(=O)N[C@@H](CC(C)C)C(N)=O)C(C)C [SR2D10] (H-FLSLIP[dK]AIKAVKALAK[dK]L-NH2) | 32 µM | 4 µM | 4 µM | 4 µM |  | 
CC[C@H](C)[C@H](NC(=O)[C@H](C)NC(=O)[C@@H](CCCCN)NC(=O)[C@@H]1CCCN1C(=O)[C@@H](NC(=O)[C@H](CC(C)C)NC(=O)[C@H](CO)NC(=O)[C@H](CC(C)C)NC(=O)[C@@H](N)Cc1ccccc1)[C@@H](C)CC)C(=O)N[C@@H](CCCCN)C(=O)N[C@@H](C)C(=O)N[C@H](C(=O)N[C@@H](CO)C(=O)N[C@@H](C)C(=O)N[C@@H](CC(C)C)C(=O)N[C@@H](C)C(=O)N[C@@H](CCCCN)C(=O)N[C@@H](CCCCN)C(=O)N[C@@H](CC(C)C)C(N)=O)C(C)C [SRD7] (H-FLSLIP[dK]AIKAVSALAKKL-NH2) | 32 µM | 2 µM |  |  |  | 
FLSLIPKAIKAVKALAKKL-NH2 [SR2] | 16 µM | 2 µM | 2 µM | 2 µM | 2 µM | 2 µM
FLSLIPKAIKAVSALAKKL-NH2 [SR] | 16 µM |  | 2 µM | 2 µM |  | 
